Measured values reported in US10975056B2 (GlaxoSmithKline Intellectual Property Development Limited, priority 2016, dated 2021).
“And” between values parts separate entries of the source, which are not always exact repeats. Equal values may be shown once. Where a name gives a salt, the structure may show the parent alone. Read-outs that look alike come from different tables or passages of the source.

Columns and labels:
DNMT1 = DNMT1 (Homo sapiens, UniProt P26358); assay: DNMT1 biochemical activity, breaklight assay and/or SPA assay
DNMT1, sequence (P26358 whole entry, looked up): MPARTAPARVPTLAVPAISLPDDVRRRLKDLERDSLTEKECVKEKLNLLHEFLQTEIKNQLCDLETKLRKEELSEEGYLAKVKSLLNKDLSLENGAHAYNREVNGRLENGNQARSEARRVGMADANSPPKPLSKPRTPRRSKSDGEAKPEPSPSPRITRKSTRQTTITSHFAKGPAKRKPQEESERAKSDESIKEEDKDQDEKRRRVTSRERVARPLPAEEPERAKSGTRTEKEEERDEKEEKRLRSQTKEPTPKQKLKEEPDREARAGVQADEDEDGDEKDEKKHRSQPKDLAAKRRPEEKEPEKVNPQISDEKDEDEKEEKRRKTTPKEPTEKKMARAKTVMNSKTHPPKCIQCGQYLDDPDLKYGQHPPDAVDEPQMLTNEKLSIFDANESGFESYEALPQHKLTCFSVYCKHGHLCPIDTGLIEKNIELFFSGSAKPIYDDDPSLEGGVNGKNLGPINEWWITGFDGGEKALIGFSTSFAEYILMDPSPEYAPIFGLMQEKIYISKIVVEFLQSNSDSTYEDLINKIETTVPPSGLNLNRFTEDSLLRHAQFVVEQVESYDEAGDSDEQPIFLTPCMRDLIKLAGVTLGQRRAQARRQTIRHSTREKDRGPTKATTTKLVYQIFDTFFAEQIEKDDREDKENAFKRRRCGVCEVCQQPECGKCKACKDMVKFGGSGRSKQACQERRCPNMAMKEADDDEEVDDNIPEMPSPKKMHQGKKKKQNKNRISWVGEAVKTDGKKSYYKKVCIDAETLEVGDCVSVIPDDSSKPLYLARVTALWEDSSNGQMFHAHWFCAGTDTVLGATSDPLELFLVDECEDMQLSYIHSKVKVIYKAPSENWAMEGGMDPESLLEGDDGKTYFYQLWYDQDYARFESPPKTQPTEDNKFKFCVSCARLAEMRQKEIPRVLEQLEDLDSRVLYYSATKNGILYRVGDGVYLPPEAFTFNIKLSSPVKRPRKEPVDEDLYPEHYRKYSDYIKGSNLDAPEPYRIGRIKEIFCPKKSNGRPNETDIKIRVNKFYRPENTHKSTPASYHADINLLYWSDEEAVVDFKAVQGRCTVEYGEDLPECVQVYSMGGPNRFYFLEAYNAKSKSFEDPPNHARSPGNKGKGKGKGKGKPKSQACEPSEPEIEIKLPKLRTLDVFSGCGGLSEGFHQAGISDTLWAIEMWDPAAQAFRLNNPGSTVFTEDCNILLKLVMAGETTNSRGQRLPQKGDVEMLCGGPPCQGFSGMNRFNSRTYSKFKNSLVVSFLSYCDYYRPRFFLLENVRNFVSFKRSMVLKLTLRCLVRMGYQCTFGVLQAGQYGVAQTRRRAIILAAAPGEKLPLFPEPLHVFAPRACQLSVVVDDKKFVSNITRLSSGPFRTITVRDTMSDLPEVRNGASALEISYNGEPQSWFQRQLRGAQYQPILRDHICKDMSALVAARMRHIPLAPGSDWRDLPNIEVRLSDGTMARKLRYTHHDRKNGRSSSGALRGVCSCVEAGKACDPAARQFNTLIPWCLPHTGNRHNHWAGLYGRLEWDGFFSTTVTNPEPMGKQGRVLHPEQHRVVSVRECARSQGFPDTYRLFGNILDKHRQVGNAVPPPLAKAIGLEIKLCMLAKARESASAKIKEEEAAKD

[1] = tested on: erythroid progenitor cells (EPCs); assay: Fetal hemoglobin (HbF) ELISA in day 7 erythroid progenitor cells; type: cell-based, human; conditions: Homo sapiens, Erythroid progenitor cell, HbF ELISA, day 7 EPCs, 5 days; read-out: EPC ELISA (pEC50 category) (converted);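 further: for fetal hemoglobin induction normalized to vehicle-treated cells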
In short: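 CD34+-derived EPCs, 1,000 cells/well, rhEPO 3 U/mL; Compound A 22-pt series, […]; 5 d, 37° C, 5% CO2. Freeze-thaw lysis, anti-HbF capture + HRP anti-HbF, TMB, OD450. Normalized to DMSO wells.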

[2] = binned activity in either the breaklight or the SPA assay
[3] = binned activity in either the breaklight or the SPA assay, read-out: DNMT1 BioChemical (pIC50 category) (converted)
[4] = breaklight assay and/or SPA assay, repeated experimental runs, read-out: average pIC50 against DNMT1 (converted)

| SMILES | DNMT1 BioChemical (pIC50 category) (DNMT1; [2]) | EC50 [1] | IC50 (DNMT1; [3]) | IC50 (DNMT1; [4]) |
| --- | --- | --- | --- | --- |
| CCc1c(C#N)c(SC(C(N)=O)c2ccccc2)nc(N(C)CC(=O)N2C[C@H](CO)[C@@H](O)C2)c1C#N (stereo partly drawn) [Example 664, 2-((3,5-dicyano-4-ethyl-6-((2-((3R,4R)-3-hydroxy-4-(hydroxymethyl)pyrrolidin-1-yl)-2-oxoethyl)(methyl)amino)pyridin-2-yl)thio)-2-phenylacetamide] | D (Category D: ≥6.5) | 1000 to 31600 nM |  |  |
| CCc1c(C#N)c(SC(C(N)=O)c2ccccc2)nc(N(C)CC(=O)N(C)CCCO)c1C#N (stereo not drawn) [Example 665, 2-((6-((2-amino-2-oxo-1-phenylethyl)thio)-3,5-dicyano-4-ethylpyridin-2-yl)(methyl)amino)-N-(3-hydroxypropyl)-N-methylacetamide] | D (Category D: ≥6.5) | < 316 nM |  |  |
| CCc1c(C#N)c(SC(C(N)=O)c2ccccc2)nc(N(C)CC(=O)NC[C@@H](O)CO)c1C#N (stereo partly drawn) [Example 666, 2-((6-((2-amino-2-oxo-1-phenylethyl)thio)-3,5-dicyano-4-ethylpyridin-2-yl)(methyl)amino)-N-((R)-2,3-dihydroxypropyl)acetamide] | D (Category D: ≥6.5) | 1000 to 31600 nM |  |  |
| N#Cc1c(SC(C(N)=O)c2ccccc2)nc(N2CCC(NCC(N)=O)CC2)c(C#N)c1C1CC1 (stereo not drawn) [Example 667, 2-((6-(4-((2-amino-2-oxoethyl)amino)piperidin-1-yl)-3,5-dicyano-4-cyclopropylpyridin-2-yl)thio)-2-phenylacetamide] |  | 1000 to 31600 nM | < 316 nM |  |
| CCc1c(C#N)c(SC(C(N)=O)c2ccccc2)nc(N(C)CC(=O)N(CCO)CCO)c1C#N (stereo not drawn) [Example 668, 2-((6-((2-amino-2-oxo-1-phenylethyl)thio)-3,5-dicyano-4-ethylpyridin-2-yl)(methyl)amino)-N,N-bis(2-hydroxyethyl)acetamide] | D (Category D: ≥6.5) | 316 to 1000 nM |  |  |
| CCc1c(C#N)c(SC(C(N)=O)c2ccccc2)nc(N(C)CC(=O)NCCO)c1C#N (stereo not drawn) [Example 669, 2-((6-((2-amino-2-oxo-1-phenylethyl)thio)-3,5-dicyano-4-ethylpyridin-2-yl)(methyl)amino)-N-(2-hydroxyethyl)acetamide] | D (Category D: ≥6.5) | < 316 nM |  |  |
| CCc1c(C#N)c(SC(C(N)=O)c2ccccc2)nc(N(C)CCCN)c1C#N (stereo not drawn) [Example 670, 2-((6-((3-aminopropyl)(methyl)amino)-3,5-dicyano-4-ethylpyridin-2-yl)thio)-2-phenylacetamide hydrochloride] | D (Category D: ≥6.5) | < 316 nM |  |  |
| CCc1c(C#N)c(SC(C(N)=O)c2ccccc2)nc(N2CC(CN)C2)c1C#N (stereo not drawn) [Example 671, 2-((6-(3-(aminomethyl)azetidin-1-yl)-3,5-dicyano-4-ethylpyridin-2-yl)thio)-2-phenylacetamide] | D (Category D: ≥6.5) | < 316 nM |  |  |
| CCc1c(C#N)c(SC(C(N)=O)c2ccccc2)nc(N(C)CC(=O)NCC2(CO)CC2)c1C#N (stereo not drawn) [Example 673, 2-((6-((2-amino-2-oxo-1-phenylethyl)thio)-3,5-dicyano-4-ethylpyridin-2-yl)(methyl)amino)-N-((1-(hydroxymethyl)cyclopropyl)methyl)acetamide] | D (Category D: ≥6.5) | < 316 nM |  |  |
| CCc1c(C#N)c(S[C@@H](C(N)=O)c2ccc(F)cc2F)nc(N2CC[C@H](O)C2)c1C#N [Example 674, (R)-2-((3,5-dicyano-4-ethyl-6-((S)-3-hydroxypyrrolidin-1-yl)pyridin-2-yl)thio)-2-(2,4-difluorophenyl)acetamide] | D (Category D: ≥6.5) | 1000 to 31600 nM |  |  |
| CCc1c(C#N)c(SC(C(N)=O)c2ccccc2)nc(N(C)CC(=O)NC2(CO)COC2)c1C#N (stereo not drawn) [Example 675, 2-((6-((2-amino-2-oxo-1-phenylethyl)thio)-3,5-dicyano-4-ethylpyridin-2-yl)(methyl)amino)-N-(3-(hydroxymethyl)oxetan-3-yl)acetamide] |  | 316 to 1000 nM | < 316 nM |  |
| CCc1c(C#N)c(SC(C(N)=O)c2ccccc2)nc(N2CC(ONC(=N)N)C2)c1C#N (stereo not drawn) [Example 676, 2-((3,5-dicyano-4-ethyl-6-(3-(guanidinooxy)azetidin-1-yl)pyridin-2-yl)thio)-2-phenylacetamide] | D (Category D: ≥6.5) | 1000 to 31600 nM |  |  |
| CCc1c(C#N)c(SC(C(N)=O)c2ccccc2)nc(N(C)CC(=O)NCCCO)c1C#N (stereo not drawn) [Example 677, 2-((6-((2-amino-2-oxo-1-phenylethyl)thio)-3,5-dicyano-4-ethylpyridin-2-yl)(methyl)amino)-N-(3-hydroxypropyl)acetamide] | D (Category D: ≥6.5) | 316 to 1000 nM |  |  |
| CCc1c(C#N)c(SC(C(N)=O)c2ccccc2)nc(N(C)CC(=O)NO)c1C#N (stereo not drawn) [Example 679, 2-((6-((2-amino-2-oxo-1-phenylethyl)thio)-3,5-dicyano-4-ethylpyridin-2-yl)(methyl)amino)-N-hydroxyacetamide] | D (Category D: ≥6.5) | 316 to 1000 nM |  |  |
| N#Cc1c(SC(C(N)=O)c2ccccc2)nc(N2CC(NC(=O)C3(N)COC3)C2)c(C#N)c1C1CC1 (stereo not drawn) [Example 680, 3-amino-N-(1-(6-((2-amino-2-oxo-1-phenylethyl)thio)-3,5-dicyano-4-cyclopropylpyridin-2-yl)azetidin-3-yl)oxetane-3-carboxamide] |  | 1000 to 31600 nM | < 316 nM |  |
| CCc1c(C#N)c(SC(C(N)=O)c2ccccc2F)nc(N2CC[C@H](O)C2)c1C#N (stereo partly drawn) [Example 682, 2-((3,5-dicyano-4-ethyl-6-((S)-3-hydroxypyrrolidin-1-yl)pyridin-2-yl)thio)-2-(2-fluorophenyl)acetamide] | D (Category D: ≥6.5) | 1000 to 31600 nM |  |  |
| COc1c(C#N)c(SCc2ccc(N(C)S(C)(=O)=O)cc2)nc(N2CCC(N)CC2)c1C#N [Example 683, N-(4-(((6-(4-aminopiperidin-1-yl)-3,5-dicyano-4-methoxypyridin-2-yl)thio)methyl)phenyl)-N-methylmethanesulfonamide hydrochloride] | D (Category D: ≥6.5) | < 316 nM |  | 316 to 1000 nM and 316 nM |
| CCc1c(C#N)c(SC(C(N)=O)c2ccccc2)nc(N2CCC[C@H](NC3CC3)C2)c1C#N (stereo partly drawn) [Example 684, 2-((3,5-dicyano-6-((S)-3-(cyclopropylamino)piperidin-1-yl)-4-ethylpyridin-2-yl)thio)-2-phenylacetamide] | D (Category D: ≥6.5) | < 316 nM |  |  |
| CCc1c(C#N)c(SC(C(N)=O)c2ccccc2)nc(N(C)CC(=O)NCC(C)(C)CO)c1C#N (stereo not drawn) [Example 685, 2-((6-((2-amino-2-oxo-1-phenylethyl)thio)-3,5-dicyano-4-ethylpyridin-2-yl)(methyl)amino)-N-(3-hydroxy-2,2-dimethylpropyl)acetamide] | D (Category D: ≥6.5) | 316 to 1000 nM |  | 316 to 1000 nM and 316 nM |
| CCc1c(C#N)c(SC(C(N)=O)c2ccccc2)nc(N(C)CC(=O)NCCn2cnnc2)c1C#N (stereo not drawn) [Example 686, N-(2-(4H-1,2,4-triazol-4-yl)ethyl)-2-((6-((2-amino-2-oxo-1-phenylethyl)thio)-3,5-dicyano-4-ethylpyridin-2-yl)(methyl)amino)acetamide] | D (Category D: ≥6.5) | 1000 to 31600 nM |  |  |
| CCc1c(C#N)c(SC(C(N)=O)c2ccccc2)nc(N2CC(F)(CN)C2)c1C#N (stereo not drawn) [Example 688, 2-((6-(3-(aminomethyl)-3-fluoroazetidin-1-yl)-3,5-dicyano-4-ethylpyridin-2-yl)thio)-2-phenylacetamide] | D (Category D: ≥6.5) | 1000 to 31600 nM |  |  |
| CCc1c(C#N)c(S[C@@H](C(N)=O)c2ccccc2)nc(N2CC[C@](O)(CO)C2)c1C#N [Example 689, (R)-2-((3,5-dicyano-4-ethyl-6-((R)-3-hydroxy-3-(hydroxymethyl)pyrrolidin-1-yl)pyridin-2-yl)thio)-2-phenylacetamide] | D (Category D: ≥6.5) | 1000 to 31600 nM |  |  |
| CCc1c(C#N)c(SC(C(N)=O)c2ccccc2)nc(N2CCC[C@H](NCC(F)F)C2)c1C#N (stereo partly drawn) [Example 690, 2-((3,5-dicyano-6-((S)-3-((2,2-difluoroethyl)amino)piperidin-1-yl)-4-ethylpyridin-2-yl)thio)-2-phenylacetamide] | D (Category D: ≥6.5) | 1000 to 31600 nM |  |  |
| CCc1c(C#N)c(SC(C(N)=O)c2ccccc2)nc(N2CCC[C@@H](N)C2)c1C#N (stereo partly drawn) [Example 691, 2-((6-((R)-3-aminopiperidin-1-yl)-3,5-dicyano-4-ethylpyridin-2-yl)thio)-2-phenylacetamide] | D (Category D: ≥6.5) | 1000 to 31600 nM |  |  |
| CCc1c(C#N)c(SCc2ccc(N(C)S(C)(=O)=O)cc2)nc(N2CCC(NCCO)CC2)c1C#N [Example 692, N-(4-(((3,5-dicyano-4-ethyl-6-(4-((2-hydroxyethyl)amino)piperidin-1-yl)pyridin-2-yl)thio)methyl)phenyl)-N-methylmethanesulfonamide] | D (Category D: ≥6.5) | < 316 nM |  |  |
| COc1c(C#N)c(SC(C(N)=O)c2ccccc2)nc(N2CCC(N)CC2)c1C#N (stereo not drawn) [Example 693, 2-((6-(4-aminopiperidin-1-yl)-3,5-dicyano-4-methoxypyridin-2-yl)thio)-2-phenylacetamide 2,2,2-trifluoroacetate] | D (Category D: ≥6.5) | < 316 nM |  |  |
